We go through 9 compounds from patent US20260217708A1, “FUSED BENZAZEPINE DERIVATIVES FOR USE IN THE TREATMENT OF CANCER AND EPILEPSY” (UCB BIOPHARMA SRL, priority 2023, published 2026).

Assay [1] concerns the target T1, system Xc^− (Homo sapiens, UniProt Q9UPY5).
T1 sequence (Q9UPY5 1-501): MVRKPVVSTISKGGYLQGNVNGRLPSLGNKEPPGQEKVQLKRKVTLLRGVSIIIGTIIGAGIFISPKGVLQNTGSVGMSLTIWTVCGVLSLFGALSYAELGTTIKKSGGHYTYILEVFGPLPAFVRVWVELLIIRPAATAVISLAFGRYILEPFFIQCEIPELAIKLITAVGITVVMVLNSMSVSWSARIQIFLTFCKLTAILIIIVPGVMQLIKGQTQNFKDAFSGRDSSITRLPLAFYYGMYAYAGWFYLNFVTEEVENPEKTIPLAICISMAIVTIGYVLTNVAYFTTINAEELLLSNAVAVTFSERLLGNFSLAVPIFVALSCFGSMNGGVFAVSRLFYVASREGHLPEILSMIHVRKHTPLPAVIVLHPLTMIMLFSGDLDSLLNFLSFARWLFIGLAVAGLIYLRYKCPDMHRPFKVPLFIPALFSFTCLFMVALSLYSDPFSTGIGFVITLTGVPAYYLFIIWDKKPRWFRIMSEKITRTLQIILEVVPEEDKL
T1 sequence (P08195 1-529 partner): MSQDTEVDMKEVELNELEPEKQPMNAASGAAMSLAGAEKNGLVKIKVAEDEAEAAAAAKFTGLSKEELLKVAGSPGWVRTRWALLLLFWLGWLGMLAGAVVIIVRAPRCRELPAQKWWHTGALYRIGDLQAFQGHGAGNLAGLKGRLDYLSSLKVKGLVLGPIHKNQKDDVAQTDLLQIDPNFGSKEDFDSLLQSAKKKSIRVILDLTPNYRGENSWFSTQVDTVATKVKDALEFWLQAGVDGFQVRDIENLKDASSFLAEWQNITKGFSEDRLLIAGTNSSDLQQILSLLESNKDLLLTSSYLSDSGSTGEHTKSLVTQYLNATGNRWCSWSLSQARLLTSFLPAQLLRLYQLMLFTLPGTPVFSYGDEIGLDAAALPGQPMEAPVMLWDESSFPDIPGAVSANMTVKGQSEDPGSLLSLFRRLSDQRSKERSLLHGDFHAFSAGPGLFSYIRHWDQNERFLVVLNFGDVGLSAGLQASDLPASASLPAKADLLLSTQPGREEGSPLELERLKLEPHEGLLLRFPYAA
Kind of assay: [^14C]L-Cystine uptake assay. Type of assay: cell-based. More on the design: endogenous in cells; host or cells: H4 cells. The note with it: H4 cells, sodium-free HEPES buffer, 0.5 μM L-[14C]Cystine and 4.5 μM L-Cystine, 1 hour at 37° C.; read-out: pIC50 [^14C] L-Cystine uptake assay (converted). The procedure, abridged:
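H4 cells at 5×10^4 cells/well in sodium-free HEPES buffer were preincubated 15 min with compounds (1% DMSO). Uptake of 0.5 μM [14C]L-cystine plus 4.5 μM unlabelled L-cystine ran 1 hour at 37° C on scintillating plates. IC50 was set between 1% DMSO and 50 μM Erastin controls and expressed as pIC50.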

For assay [2], the target named is T1, system Xc^−. Kind of assay: Cystine-induced glutamate release assay. Type of assay: cell-based. More on the design: endogenous in cells; host or cells: H4 cells. As to conditions: H4 cells, sodium-free HEPES buffer, 50 μM L-Cystine, 2 hours, Amplex Red glutamate readout; read-out: pIC50 Cystine-induced glutamate release assay (converted). The method in brief: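 H4 cells in sodium-free HEPES buffer (pH 7.4), 2 days after plating; glutamate release induced with 50 μM L-cystine plus compound (1% DMSO), 2 h at 37 °C. Supernatant glutamate measured by Amplex Red fluorescence; IC50/pIC50 derived between 1% DMSO and 50 μM erastin controls.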

Some results are limits rather than exact numbers.

For `Cc1cc2c(c(F)n1)-c1cccnc1[C@@H](C)C(=O)N2CC(=O)Nc1ccc(Cl)c(F)c1F` [#249, N-(4-chloro-2,3-difluoro-phenyl)-2-[(10R)-3-fluoro-5,10-dimethyl-9-oxo-4,8,12-triazatricyclo[9.4.0.0^2,7]pentadeca-1(15),2,4,6,11,13-hexaen-8-yl]acetamide], the IC50 is 100 to 501 nM in assay [1] and 39.8 to 100 nM in assay [2].
With `Cc1cc2c(c(=O)n1C)-c1cccnc1C(C)C(=O)N2CC(=O)Nc1ccc(Cl)c(F)c1` (stereo not drawn) [#254, N-(4-chloro-3-fluoro-phenyl)-2-(4,5,10-trimethyl-3,9-dioxo-4,8,12-triazatricyclo[9.4.0.0^2,7]pentadeca-1(15),2(7),5,11,13-pentaen-8-yl)acetamide], the IC50 in assay [1] and in assay [2] was below 15.8 nM each time.
As for `Cc1cc2c(c(=O)n1C)-c1ccc(F)cc1C(C)C(=O)N2CC(=O)Nc1ccc(C(F)F)cc1` (stereo not drawn) [#256, N-[4-(difluoromethyl)phenyl]-2-(9-fluoro-2,3,7-trimethyl-1,6-dioxo-7H-pyrido[4,3-d][3]benzazepin-5-yl)acetamide], the IC50 in assay [1] and in assay [2] was below 15.8 nM each time.
Consider `COCCN(C)c1cc2c(c(F)n1)-c1cccnc1C(C)C(=O)N2CC(=O)Nc1ccc(Cl)c(F)c1` (stereo not drawn) [#264, N-(4-chloro-3-fluoro-phenyl)-2-[3-fluoro-5-[2-methoxyethyl(methyl)amino]-10-methyl-9-oxo-4,8,12-triazatricyclo[9.4.0.0^2,7]pentadeca-1(15),2(7),3,5,11,13-hexaen-8-yl]acetamide], for which the figures for the IC50 in assay [1] and in assay [2] were below 15.8 nM and 15.8 to 39.8 nM, respectively.
Take `CC1C(=O)N(CC(=O)Nc2ccc(C(F)F)cc2)c2cc(N3CCOCC3)nc(F)c2-c2cccnc21` (stereo not drawn) [#271, N-[4-(difluoromethyl)phenyl]-2-(3-fluoro-10-methyl-5-morpholino-9-oxo-4.8,12-triazatricyclo[9.4.0.0^2,7]pentadeca-1(15),2,4,6,11,13-hexaen-8-yl)acetamide]: the figures for the IC50 in assay [1] and in assay [2] were below 15.8 nM and 15.8 to 39.8 nM, respectively.
The corresponding values for `CC1C(=O)N(CC(=O)Nc2ccc(C(F)F)cc2)c2cc(N3CC[C@H]3CO)nc(F)c2-c2cccnc21` (stereo partly drawn) [#272, N-[4-(difluoromethyl)phenyl]-2-[3-fluoro-5-[(2S)-2-(hydroxymethyl)azetidin-1-yl]-10-methyl-9-oxo-4,8,12-triazatricyclo[9.4.0.0^2,7]pentadeca-1(15),2,4,6,11,13-hexaen-8-yl]acetamide] are 15.8 to 39.8 nM and 15.8 to 39.8 nM.
Consider `CC1C(=O)N(CC(=O)Nc2ccc(C(F)F)cc2)c2cc(N3CC[C@@H]3CO)nc(F)c2-c2cccnc21` (stereo partly drawn) [#273, N-[4-(difluoromethyl)phenyl]-2-[3-fluoro-5-[(2R)-2-(hydroxymethyl)azetidin-1-yl]-10-methyl-9-oxo-4,8,12-triazatricyclo[9.4.0.0^2,7]pentadeca-1(15),2,4,6,11,13-hexaen-8-yl]acetamide], for which the IC50 in assay [1] and in assay [2] was below 15.8 nM in each case.
`O=C(CN1C(=O)Cc2ncccc2-c2c1cc(N1CC3(CC3)C1)nc2F)Nc1ccc(C(F)F)cc1` [#294, 2-[5-(5-azaspiro[2.3]hexan-5-yl)-3-fluoro-9-oxo-4,8,12-triazatricyclo[9.4.0.0^2,7]pentadeca-1(15),2,4,6,11,13-hexaen-8-yl]-N-[4-(difluoromethyl)phenyl]acetamide]: the IC50 in assay [1] is 39.8 to 100 nM; in assay [2], 15.8 to 39.8 nM.
For the compound `O=C(CN1C(=O)Cc2ncccc2-c2c1cc(N1CC(F)(F)C1)nc2F)Nc1ccc(C(F)F)cc1` [#295, 2-[5-(3,3-difluoroazetidin-1-yl)-3-fluoro-9-oxo-4,8,12-triazatricyclo[9.4.0.0^2,7]pentadeca-1(15),2,4,6,11,13-hexaen-8-yl]-N-[4-(difluoromethyl)phenyl]acetamide], the IC50 in assay [1] and in assay [2] was below 15.8 nM in each case.
